Measurements taken from PMC8217813, “Bridging Computational Vaccinology and Vaccine Development Through Systematic Identification, Characterization, and Downselection of Conserved and Variable Circumsporozoite Protein CD4 T Cell Epitopes From Diverse Plasmodium falciparum Strains” (Frontiers in Immunology, 2021).
Peptide text beside a SMILES is read from it.

What was measured:
HLA A*0201 = target: T1, HLA A*0201 (Homo sapiens, UniProt P04439, D140Y/D185E/D98H/E176V/E277Q/G131W/G231S/I119V/I121R/I166T/I218V/L300P/L318F/N151K/N90K/P208A/P217A/Q86G/Q94H/R138H/R169H/T345S); test: biochemical; format: binding; settings: allele A0201; cell-free competition with fluorescently labeled control peptide, fluorescence polarization at 72 hours; read-out: IC50
T1 construct: Pure Protein, LLC (ran the assay)

HLA B*0702 = target: T2, HLA B*0702 (Homo sapiens, UniProt P01889); test: biochemical; format: binding; settings: allele B0702, cell-free competition with fluorescently labeled control peptide, fluorescence polarization at 72 hours; for IC50: read-out: IC50
T2 construct: Pure Protein, LLC (ran the assay)

HLA A*0301 = target: T3, HLA A*0301 (Homo sapiens, UniProt P04439); test: In vitro class I HLA binding competition assay (fluorescence polarization); settings: for IC50 (nM): allele A0301, cell-free competition with fluorescently labeled control peptide, fluorescence polarization at 72 hours
T3 construct: Pure Protein, LLC (ran the assay)

HLA B*4402 = HLA B*4402 (Homo sapiens, UniProt P01889, A223V/A65T/A93T/A95T/D201E/D98Y/E176V/E187L/E204Q/E69K/G107R/H137Y/K202T/L105A/L119I/N104T/N87E/Q56L/Q94N/R106L/R155S/R180D/S101N/S121R/S35A/S48T/T118I/V36M/W191S/Y140D/Y91S); test: as above; settings: allele B4402; cell-free competition with fluorescently labeled control peptide, fluorescence polarization at 72 hours
Procedure: The cell-free class I HLA binding assay in use at Pure Protein, LLC allows for in vitro quantification of peptide-HLA binding affinity in a competition format. In this assay, a fluorescently labeled, high binding, control peptide is loaded onto 384-well ½-area plates along with unlabeled experimental peptides. To remove endogenous peptides and render the HLA A and B molecules receptive to binding, HLA is heated at 53°C for 15 minutes and immediately added to the assay. The mixture is then allowed to stand for three days. Once the mixture has reached steady equilibrium (at 72 hours), displacement of the high binding control peptide is measured through Fluorescence Polarization. Binding of experimental peptides is expressed as the percent inhibition of the labeled control peptide (experimental fluorescence / control fluorescence, multiplied by 100). The percent inhibition values for each experimental peptide (across a range of molar concentrations) are used to calculate the concentration which inhibits 50% of the labeled control peptide’s specific binding. This value is referred to as the peptide’s IC50.

HLA A*0101 = target: T4, HLA A*0101 (Homo sapiens, UniProt P04439, A114D/A174V/A182V/D101N/D185E/E176A/E190D/L180R/Q94H/R68K/S129P/T187R/V100A/V91M/W191G); test: biochemical; format: binding; settings: allele A0101, cell-free competition with fluorescently labeled control peptide, fluorescence polarization at 72 hours; for IC50: read-out: IC50
T4 construct: Pure Protein, LLC (ran the assay)

CC(C)C[C@H](N)C(=O)N[C@@H](CO)C(=O)N[C@H](C(=O)N[C@@H](CCC(=O)O)C(=O)N[C@@H](Cc1c[nH]c2ccccc12)C(=O)N[C@@H](CO)C(=O)N1CCC[C@H]1C(=O)N[C@@H](CS)C(=O)N[C@@H](CO)C(=O)N[C@H](C(=O)O)C(C)C)[C@@H](C)O [327_3D7 (10)] (H-LSTEWSPCSV-OH)
IC50 (HLA A*0201): 4.38 µM

C[C@H](NC(=O)[C@H](CO)NC(=O)CNC(=O)[C@@H]1CCCN1C(=O)[C@@H](N)CCCCN)C(=O)NCC(=O)N[C@@H](CCCCN)C(=O)N[C@@H](CO)C(=O)N[C@@H](CCCCN)C(=O)O [347_CVX36 (9)] (H-KPGSAGKSK-OH)
IC50 (HLA B*0702): 53.1 µM

CC(C)C[C@H](NC(=O)[C@@H](N)CCCCN)C(=O)N[C@@H](CCCNC(=N)N)C(=O)N[C@@H](CCCCN)C(=O)N1CCC[C@H]1C(=O)N[C@@H](CCCCN)C(=O)N[C@@H](Cc1c[nH]cn1)C(=O)N[C@@H](CCCCN)C(=O)N[C@@H](CCCCN)C(=O)O [CL1-61]
IC50 (HLA A*0301): 3.06 µM

CSCC[C@H](N)C(=O)N1CCC[C@H]1C(=O)N[C@@H](CC(N)=O)C(=O)N[C@@H](CC(=O)O)C(=O)N1CCC[C@H]1C(=O)N[C@@H](CC(N)=O)C(=O)N[C@@H](CCCNC(=N)N)C(=O)N[C@@H](CC(N)=O)C(=O)N[C@H](C(=O)O)C(C)C [Cluster 285_3D7]
IC50 (nM) (HLA B*4402): Non-Binder
IC50 (HLA B*0702): 511 µM

C[C@H](NC(=O)[C@H](CC(N)=O)NC(=O)[C@H](CC(N)=O)NC(=O)[C@H](C)NC(=O)[C@H](CC(N)=O)NC(=O)[C@H](C)NC(=O)[C@H](CC(N)=O)NC(=O)[C@H](CCC(=O)O)NC(=O)[C@@H](N)CC(=O)O)C(=O)O [Cluster 294_CVX311] (H-DENANANNA-OH)
IC50 (HLA B*4402): 896 µM

CC[C@H](C)[C@H](N)C(=O)N[C@@H](CCC(=O)O)C(=O)N[C@@H](CCC(N)=O)C(=O)N[C@@H](Cc1ccc(O)cc1)C(=O)N[C@@H](CC(C)C)C(=O)N[C@@H](CCCCN)C(=O)N[C@@H](CCCCN)C(=O)N[C@H](C(=O)N[C@@H](CCC(N)=O)C(=O)N[C@@H](Cc1ccc(O)cc1)C(=O)O)[C@@H](C)CC [Cluster 316_ICS7] (H-IEQYLKKIQY-OH)
IC50 (HLA B*4402): 157 µM
IC50 (nM) (HLA A*0101): Non-Binder

CC[C@H](C)[C@H](NC(=O)[C@H](CCCNC(=N)N)NC(=O)[C@@H](NC(=O)[C@@H](N)CCC(N)=O)C(C)C)C(=O)N[C@@H](CCCCN)C(=O)N1CCC[C@H]1C(=O)NCC(=O)N[C@@H](CO)C(=O)N[C@@H](C)C(=O)O [Cluster 343_3D7] (H-QVRIKPGSA-OH)
IC50 (HLA B*0702): 134 µM

CC[C@H](C)[C@H](NC(=O)[C@@H](N)CCCNC(=N)N)C(=O)N[C@@H](CCCCN)C(=O)N1CCC[C@H]1C(=O)NCC(=O)N[C@@H](CO)C(=O)N[C@@H](C)C(=O)N[C@@H](CC(N)=O)C(=O)N[C@@H](CCCCN)C(=O)O [Cluster 345_3D7] (H-RIKPGSANK-OH)
IC50 (HLA A*0301): 21.3 µM

CC[C@H](C)[C@H](NC(=O)[C@@H](N)CCCNC(=N)N)C(=O)N[C@@H](CCCCN)C(=O)N1CCC[C@H]1C(=O)NCC(=O)N[C@@H](CO)C(=O)N[C@@H](C)C(=O)N[C@@H](CC(=O)O)C(=O)N[C@@H](CCCCN)C(=O)O [Cluster 345_CVX79] (H-RIKPGSADK-OH)
IC50 (HLA A*0301): 17.7 µM

CC[C@H](C)[C@H](NC(=O)[C@H](CC(=O)O)NC(=O)[C@H](CC(N)=O)NC(=O)[C@H](C)NC(=O)[C@H](Cc1ccc(O)cc1)NC(=O)[C@H](CC(=O)O)NC(=O)[C@H](CC(C)C)NC(=O)[C@H](CCC(=O)O)NC(=O)[C@@H](N)CC(=O)O)C(=O)O [Cluster 356_3D7] (H-DELDYANDI-OH)
IC50 (HLA B*4402): 277 µM

CC[C@H](C)[C@H](NC(=O)[C@H](CC(=O)O)NC(=O)[C@H](CC(N)=O)NC(=O)[C@H](C)NC(=O)[C@H](Cc1ccc(O)cc1)NC(=O)[C@H](CC(=O)O)NC(=O)[C@H](CC(C)C)NC(=O)[C@@H](N)CCC(=O)O)C(=O)N[C@@H](CCC(=O)O)C(=O)N[C@@H](CCCCN)C(=O)O [Cluster 357_3D7] (H-ELDYANDIEK-OH)
IC50 (HLA A*0301): 556 µM
IC50 (nM) (HLA A*0101): Non-Binder

CC[C@H](C)[C@H](NC(=O)[C@H](CC(=O)O)NC(=O)[C@H](CC(N)=O)NC(=O)[C@H](CCC(=O)O)NC(=O)[C@H](Cc1ccc(O)cc1)NC(=O)[C@H](CC(=O)O)NC(=O)[C@H](CC(C)C)NC(=O)[C@@H](N)CCC(N)=O)C(=O)N[C@@H](CCC(=O)O)C(=O)N[C@@H](CCCCN)C(=O)O [Cluster 357_CVX89] (H-QLDYENDIEK-OH)
IC50 (nM) (HLA A*0301): Non-Binder
IC50 (HLA A*0101): 726 µM

CC[C@H](C)[C@H](NC(=O)[C@H](CCCCN)NC(=O)[C@H](CCCCN)NC(=O)[C@H](CCC(=O)O)NC(=O)[C@@H](NC(=O)[C@H](CC(=O)O)NC(=O)[C@H](CC(N)=O)NC(=O)[C@H](CCC(=O)O)NC(=O)[C@@H](N)Cc1ccc(O)cc1)[C@@H](C)CC)C(=O)O [Cluster 360_CVX298] (H-YENDIEKKI-OH)
IC50 (HLA B*4402): 7.36 µM

CSCC[C@H](N)C(=O)N[C@@H](CCC(=O)O)C(=O)N[C@@H](CCCCN)C(=O)N[C@@H](CS)C(=O)N[C@@H](CO)C(=O)N[C@@H](CO)C(=O)N[C@H](C(=O)N[C@@H](Cc1ccccc1)C(=O)N[C@@H](CC(N)=O)C(=O)O)C(C)C [Cluster 371_3D7] (H-MEKCSSVFN-OH)
IC50 (HLA B*4402): 143 µM

CC[C@H](C)[C@H](NC(=O)[C@H](CO)NC(=O)[C@H](CO)NC(=O)[C@@H](N)CC(N)=O)C(=O)NCC(=O)N[C@@H](CC(C)C)C(=O)N[C@H](C(=O)N[C@@H](CCSC)C(=O)N[C@H](C(=O)O)C(C)C)[C@@H](C)CC [Cluster 382_3D7] (H-NSSIGLIMV-OH)
IC50 (HLA A*0101): 215 µM

DENANANSA [Cluster 294_3D7]
IC50 (nM) (HLA B*4402): Non-Binder

ELDYENDIEK [Cluster 357_CVX154]
IC50 (nM) (HLA A*0101): Non-Binder

IEKKICKMEK [Cluster 364_3D7]
IC50 (nM) (HLA A*0301): Non-Binder

KDELDYENDI [Cluster 355_CVX124]
IC50 (nM) (HLA B*4402): Non-Binder

KEYLNKIQNS [Cluster 317_3D7]
IC50 (nM) (HLA B*4402): Non-Binder

KHIKEYLNK [Cluster 314_3D7]
IC50 (nM) (HLA A*0301): Non-Binder

KMEKCSSVF [Cluster 370_3D7]
IC50 (nM) (HLA B*0702): Non-Binder
IC50 (nM) (HLA A*0101): Non-Binder

KPGSADKPKD [347_CVX69 (10)]
IC50 (nM) (HLA B*0702): Non-Binder

KPGSANKPKD [Cluster 347_3D7]
IC50 (nM) (HLA B*0702): Non-Binder

LDYANDIEK [Cluster 358_3D7]
IC50 (nM) (HLA A*0301): Non-Binder

LSTEWSPCS [327_3D7 (9)]
IC50 (nM) (HLA A*0101): Non-Binder

NANPNANPNK [Cluster 265_3D7]
IC50 (nM) (HLA A*0301): Non-Binder

NEEPSDKHI [308_3D7(9)]
IC50 (nM) (HLA B*4402): Non-Binder

NEEPSDKHIK [308_3D7 (10)]
IC50 (nM) (HLA B*4402): Non-Binder
IC50 (nM) (HLA A*0101): Non-Binder

NEEPSDQHI [Cluster 308_CVX99]
IC50 (nM) (HLA B*4402): Non-Binder

NPNANPNAN [131_3D7 (9)]
IC50 (nM) (HLA B*0702): Non-Binder

NPNANPNANP [131_3D7 (10)]
IC50 (nM) (HLA B*0702): Non-Binder

NPNVDPNANP [Cluster 107_3D7]
IC50 (nM) (HLA B*0702): Non-Binder

NVDENANAN [Cluster 292_3D7]
IC50 (nM) (HLA A*0101): Non-Binder

NVDPNANPNV [Cluster 109_3D7]
IC50 (nM) (HLA A*0101): Non-Binder

QLDYANDIEK [Cluster 357_CVX111]
IC50 (nM) (HLA A*0301): Non-Binder

SPCSVTCGNG [Cluster 332_3D7]
IC50 (nM) (HLA B*0702): Non-Binder

TEWSPCSVT [Cluster 329_3D7]
IC50 (nM) (HLA B*4402): Non-Binder

TEYLKKIQN [Cluster 317_ICS2]
IC50 (nM) (HLA B*4402): Non-Binder

VTCGNGIQV [Cluster 336_3D7]
IC50 (nM) (HLA A*0301): Non-Binder
IC50 (nM) (HLA A*0101): Non-Binder
